Each molecule was assayed against T1, human Hv1 channel (Homo sapiens, UniProt Q96D96) (assay: Patch-clamp assay of Hv1 proton transport inhibition in Xenopus oocytes expressing human Hv1). Conditions: 4 μM.
T1 construct: expressed in transfected cells; host or cells: Xenopus oocytes (cRNA injection, pGEMHE vector)
T1 sequence (Q96D96 1-273): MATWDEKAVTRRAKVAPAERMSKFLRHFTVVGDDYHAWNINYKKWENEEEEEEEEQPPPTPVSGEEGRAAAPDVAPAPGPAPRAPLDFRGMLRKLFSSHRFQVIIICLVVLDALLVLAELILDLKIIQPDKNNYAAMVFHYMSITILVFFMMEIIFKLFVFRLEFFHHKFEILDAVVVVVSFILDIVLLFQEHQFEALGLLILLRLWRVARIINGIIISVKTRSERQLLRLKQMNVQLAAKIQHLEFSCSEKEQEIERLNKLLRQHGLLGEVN
Assay type: cell-based
Procedure: Plasmids were linearized with either NheI or SphI restriction enzymes (New England Biolabs) before in vitro transcription. RNA synthesis was carried out with a T7 mMessage mMachine transcription kit (Ambion). […] The linearized plasmid was transcribed with SP6 RNA polymerase. cRNAs were injected in Xenopus oocytes (50 nl per cell, 0.3-1.5 μg/μl) 1-3 days before the electro-physiological measurements. Cells were kept at 18° C. in ND96 medium containing 96 mM NaCl, 2 mM KCl, 1.8 mM CaCl2, 1 mM MgCl2, 10 mM HEPES, 5 mM pyruvate, 100 μg/ml gentamycin (pH 7.2).
The bath solution contained 100 mM 2-(N-morpholino)ethanesulphonic acid (MES), 30 mM tetraethylammonium (TEA) methanesulfonate, 5 mM TEA chloride, 5 mM ethyleneglycol-bis(2-ami-noethyl)-N,N,N0,N0-tetra-acetic acid (EGTA), adjusted to pH 6.0 with TEA hydroxide. For recordings carried out in the absence of pH gradient (pHi=pHo=6.0), the pipette solution had the same composition of the bath solution. Some of the measurements were performed in the presence of a pH gradient (pHi=6.0, pHo=7.5). In these cases the extracellular solution contained 100 mM 4-(2-hydroxyethyl)-1-piperazineethanesulfonic acid (HEPES), 40 mM TEA methanesulfonate, 5 mM TEA chloride, adjusted to pH 7.5 with TEA hydroxide. Native proton currents in BV-2, RAW264.7, and THP-1 were measured in whole-cell configuration with an intracellular solution containing: 90 mM TEA methanesulfonate, 100 mM MES, 2 mM MgCl2, 2 mM EGTA, adjusted to pH 6.0 with TEA hydroxide. The extracellular solution contained: 85 mM TEA methanesulfonate, 100 mM HEPES, 3 mM CaCl2, 1 mM EGTA, adjusted to pH 7.5 with TEA hydroxide. All measurements were performed at 22° C.±2° C. Pipettes had 2-4 M access resistance. Current traces were filtered at 1 kHz, sampled at 5 kHz and analyzed with Clampfit10.2 (Molecular Devices) and Origin8.1 (OriginLab).

SMILES | inhibition at 4 µM [%]
N=C(N)Nc1nc2ccc([N+](=O)[O-])cc2[nH]1 [5-nitro-2-guanidinobenzimidazole] | 57 ± 10

Same assay, conditions: 40 μM

SMILES | inhibition at 40 µM [%]
Nc1nnc(Nc2ccc(Cl)cc2)[nH]1 [N(3)-(4-chlorophenyl)-4H-1,2,4-triazole-3,5-diamine] | 28 ± 7

Same assay, conditions: 200 μM

SMILES | inhibition at 200 µM [%] | Hv1 proton transport % inhibition [%]
CN(C)C(=N)NC(=N)N [1,1-dimethylbiguanide] | 6.8 ± 2.25 | 
N=C(N)Nc1nc2ccccc2s1 [1-(1,3-benzothiazol-2-yl)guanidine] | 81 | 
N=C(N)Nc1nc2ccccc2o1 [1-(1,3-benzoxazol-2-yl)guanidine] | 1 ± 1 | 
COc1ccc(CCN2CCC(Nc3nc4ccccc4n3Cc3ccc(F)cc3)CC2)cc1 [1-[(4-fluorophenyl)methyl]-N-[1-[2-(4-methoxyphenyl)ethyl]-4-piperidylibenzoimidazol-2-amine] |  | 67 ± 6
Nc1nc2ccccc2[nH]1 [2-aminobenzimidazole] | 29.8 ± 2.5 | 
Nc1ncc[nH]1 [2-aminoimidazole] | 21.2 ± 5.1 | 
Nc1ncccn1 [2-aminopyrimidine] | 2 ± 1 | 
Cc1nc(NC(=N)N)nc2ccccc12 [2-guanidino-4-methylquinazoline] | 31.7 ± 0.7 | 
N=C(N)Nc1nc2ccccc2[nH]1 [2-guanidinobenzimidazole] | 82.6 ± 2.25 | 
NC(N)=Nc1nc(CSCCC(N)=NS(N)(=O)=O)cs1 [3-([2-(diaminomethyleneamino)thiazol-4-yllmethylthio)-N′-sulfamoylpropanimidamide] |  | 21.5 ± 2.7
CC(=O)N(C(=N)NC(=N)N)c1ccccc1 [N-(guanidino-iminomethyl)-N-phenylacetamide] | 0.5 ± 1 | 
N=C(N)NCCCCN [agmatine] | 18.5 ± 1.5 | 
N=C(N)NN [aminoguanidine, amino-guanidine] | 4.3 ± 2.3 | 
CCOC(=O)c1sc(NC(=N)N)nc1C [ethyl 2-[[amino(imino)methyl]amino]-4-methyl-1,3-thiazole-5-carboxylate] | 31 | 
CCOC(=O)c1nc(NC(=N)N)sc1C [ethyl 2-[[amino(imino)methyl]amino]-5-methyl-1,3-thiazole-4-carboxylate] | 39.4 ± 3.4 | 
CCOC(=O)Cc1sc(NC(=N)N)nc1C [ethyl (2-[[amino(imino)methyl]amino1-4-methyl-1,3-thiazol-5-yl)acetate] |  | 68.2 ± 2.2
CC(C)OC(=O)CCCCC(=NNC(=N)N)c1ccccc1 [isopropyl 6-(guanidinoimino)-6-phenylhexanoate] | 73 ± 3 | 

Same assay, conditions: 600 μM

SMILES | Hv1 proton transport % inhibition [%]
CN1CC(=O)NC1=N [Creatinine, reference compound] | 0
